In patent publication EP3426634B1, “DISUBTITUTED AZETIDINES, PYRROLIDINES, PIPERIDINES AND AZEPANES AS INHIBITORS OF MONOAMINE OXIDASE B FOR THE TREATMENT OF NEURODEGENERATIVE DISEASES” (University of Ljubljana, priority 2016, dated 2018):

Target: T1, hMAO-B (Homo sapiens, UniProt P27338)
T1 construct: purchased Sigma Aldrich M7441; host or cells: baculovirus infected insect cells (BTI-TN-5B1-4)
T1 sequence (P27338 1-520): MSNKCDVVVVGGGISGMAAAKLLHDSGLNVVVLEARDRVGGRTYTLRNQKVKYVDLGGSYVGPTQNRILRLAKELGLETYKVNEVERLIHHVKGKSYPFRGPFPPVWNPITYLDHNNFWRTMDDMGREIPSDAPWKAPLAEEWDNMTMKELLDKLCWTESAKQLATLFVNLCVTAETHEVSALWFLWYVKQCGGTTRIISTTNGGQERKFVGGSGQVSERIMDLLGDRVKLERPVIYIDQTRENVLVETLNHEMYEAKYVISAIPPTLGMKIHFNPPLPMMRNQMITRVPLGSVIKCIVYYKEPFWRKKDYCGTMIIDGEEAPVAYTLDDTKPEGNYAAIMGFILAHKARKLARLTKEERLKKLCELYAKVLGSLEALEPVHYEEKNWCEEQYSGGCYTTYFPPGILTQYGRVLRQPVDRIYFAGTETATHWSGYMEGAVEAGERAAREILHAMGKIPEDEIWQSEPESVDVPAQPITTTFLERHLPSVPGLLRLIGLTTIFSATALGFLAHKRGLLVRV
Experiment: Reversibility assay (100-fold dilution)
Assay type: biochemical
Conditions: hMAO-B at 100-fold final concentration incubated 15 min at 37 °C with inhibitor at 10-fold the IC50, then diluted 100-fold; monitored 30 min
Protocol: The final concentrations of all of the reagents and MAO-B were the same as in the assay described above. The reaction was monitored for 30 min. Control experiments were carried out in the same manner, where the inhibitor solution was replaced by DMSO.

| Activity of the enzyme after 100-fold dilution (in percentage ±SD) [percentage] | SMILES |
| --- | --- |
| 94.91 ±2.52 | C#CCCN1CCC(/C=C/c2ccc(F)cc2)CC1 [drawing 194] |
| 74.01 ±2.76 | C#CCCCN1CCC(/C=C/c2ccc(F)cc2)CC1 [drawing 195] |
| 5.55 ±0.25 | C#CCN1CCCC(Cc2ccc(F)cc2)CC1 (stereo not drawn) [drawing 196] |

Target: T1, hMAO-B
Experiment: Inhibition assay using human recombinant MAO-B (fluorimetric Amplex Red assay)
Assay type: biochemical
Conditions: 1 mM p-tyramine, 15 min pre-incubation at 37 °C, pH 7.4, Amplex Red/horseradish peroxidase, read-out: hMAO-B IC50 [nM] ±SEM
Protocol: The inhibitory activity of the compounds was evaluated by their effects on the production of hydrogen peroxide (H2O2) from p-tyramine, a nonspecific substrate for both hMAO isoforms. The production of the H2O2 was detected using Amplex Red reagent in the presence of horseradish peroxidase, where a highly sensitive fluorescent product, resorufin, is produced at stoichiometric amounts. Recombinant human microsomal hMAO enzymes expressed in baculovirus infected insect cells (BTI-TN-5B1-4), horse-radish peroxidase (type II, lyophilized powder), and p-tyramine hydrochloride were purchased from Sigma Aldrich.
The production of resorufin was quantified on the basis of the fluorescence generated (λex= 530 nm, λem = 590 nm) at 37 °C over a period of 20 min, during which time the fluorescence increase linearly. For control experiments, DMSO was used instead of the appropriate dilutions of the compounds in DMSO. To determine the blank value (b), phosphate-buffered solution replaced the enzyme solution. The initial velocities were calculated from the trends obtained, with each measurement carried out in duplicate. The inhibitory potencies are expressed as the residual activities (RA = (vi-b) / (vo-b), where vi is the velocity in the presence of the test compounds, and v0 the control velocity in the presence of DMSO. The IC50 values were obtained by plotting residual enzyme activities against applied inhibitor concentration, with the experimental data fitted to a Hill four parameter equation (Equation (1)) using in-house python script and Gnuplot software. Y = Min + (Max−Min)/(1+10^(∧)((LogIC50−X)×Hillcoefficient)) [formula] where X represent logarithm of inhibitor concentration, and Y the residual activity.
The capacity of the test compounds to react directly with Amplex Red was determined by adding these compounds to a solution containing all of the components except the MAO isoenzyme.

| SMILES | IC50 [nM] |
| --- | --- |
| C#CCN1CCC(/C=C/c2ccccn2)CC1 | 730 ± 85.6 |
| C#CCN1CCC(=Cc2ccc(F)cc2)CC1 | 48800 ± 3240 |
| C#CCN1CCC(CCc2ccc(Br)cc2)CC1 | 1440 ± 140 |
| C#CCN1CCC(/C=C/c2ccc(F)cc2)C1 (stereo not drawn) | 17400 ± 2040 |
| C#CCCN1CCC(/C=C/c2ccc(F)cc2)CC1 [drawing 173] | 475 ± 28.6 |
| C#CCCCN1CCC(/C=C/c2ccc(F)cc2)CC1 [drawing 177] | 163 ± 17 |

Results, then the molecule that gave them:

| IC50 [nM] | SMILES |
| --- | --- |
| 1700 ± 292 | C#CCCN1CCC(CCc2ccc(F)cc2)CC1 |
| 250 ± 42.4 | C#CCN1CCCC(CCc2ccc(F)cc2)CC1 (stereo not drawn) |
| 59.2 ± 6 | C#CCN1CCCC(Cc2ccc(F)cc2)CC1 (stereo not drawn) [drawing 183] |
